Earlier results on one molecule are cited in patent publication US20030108955A1, “Dioxin derivatives and method of measurement therewith” (priority 2000, published 2003).

The conditions of the data set: general knowledge.

For the molecule `O=C(O)CCCC[C@@H]1SC[C@@H]2NC(=O)N[C@@H]21` [biotin], the water solubility result is “insoluble to water”.
